Test results taken from patent US9273040B2 (Merck Sharp & Dohme Corp., priority 2011, dated 2016).

Experiments:
Assay type in all cases: cell-based
[1] = biological target: T1, human Nav1.5 channels stably expressed in HEK 293 cells (Homo sapiens, UniProt Q14524); assay: PatchXpress 7000 automated patch-clamp, sodium current; conditions: selectivity over Nav1.5
T1 construct: expressed in transfected cells
Summary of the method: (§1)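 IC50 values came from Hill-equation fits of rundown-corrected inhibition. PatchXpress recordings at 22° C held cells 20 mV negative to V0.5 inact and applied 10 Hz trains of 30 ms steps to −20 mV (Nav1.7) or an 8000 ms prepulse 7 mV positive to V0.5 inact. […]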

[2] = biological target: T2, human Nav1.7 channels stably expressed in HEK 293 cells (Homo sapiens, UniProt Q15858); assay: as above; conditions: 22° C., read-out: potency for the Nav 1.7 sodium ion channel (as measured by PatchXpress)
T2 construct: expressed in transfected cells
T2 sequence (Q15858 whole entry): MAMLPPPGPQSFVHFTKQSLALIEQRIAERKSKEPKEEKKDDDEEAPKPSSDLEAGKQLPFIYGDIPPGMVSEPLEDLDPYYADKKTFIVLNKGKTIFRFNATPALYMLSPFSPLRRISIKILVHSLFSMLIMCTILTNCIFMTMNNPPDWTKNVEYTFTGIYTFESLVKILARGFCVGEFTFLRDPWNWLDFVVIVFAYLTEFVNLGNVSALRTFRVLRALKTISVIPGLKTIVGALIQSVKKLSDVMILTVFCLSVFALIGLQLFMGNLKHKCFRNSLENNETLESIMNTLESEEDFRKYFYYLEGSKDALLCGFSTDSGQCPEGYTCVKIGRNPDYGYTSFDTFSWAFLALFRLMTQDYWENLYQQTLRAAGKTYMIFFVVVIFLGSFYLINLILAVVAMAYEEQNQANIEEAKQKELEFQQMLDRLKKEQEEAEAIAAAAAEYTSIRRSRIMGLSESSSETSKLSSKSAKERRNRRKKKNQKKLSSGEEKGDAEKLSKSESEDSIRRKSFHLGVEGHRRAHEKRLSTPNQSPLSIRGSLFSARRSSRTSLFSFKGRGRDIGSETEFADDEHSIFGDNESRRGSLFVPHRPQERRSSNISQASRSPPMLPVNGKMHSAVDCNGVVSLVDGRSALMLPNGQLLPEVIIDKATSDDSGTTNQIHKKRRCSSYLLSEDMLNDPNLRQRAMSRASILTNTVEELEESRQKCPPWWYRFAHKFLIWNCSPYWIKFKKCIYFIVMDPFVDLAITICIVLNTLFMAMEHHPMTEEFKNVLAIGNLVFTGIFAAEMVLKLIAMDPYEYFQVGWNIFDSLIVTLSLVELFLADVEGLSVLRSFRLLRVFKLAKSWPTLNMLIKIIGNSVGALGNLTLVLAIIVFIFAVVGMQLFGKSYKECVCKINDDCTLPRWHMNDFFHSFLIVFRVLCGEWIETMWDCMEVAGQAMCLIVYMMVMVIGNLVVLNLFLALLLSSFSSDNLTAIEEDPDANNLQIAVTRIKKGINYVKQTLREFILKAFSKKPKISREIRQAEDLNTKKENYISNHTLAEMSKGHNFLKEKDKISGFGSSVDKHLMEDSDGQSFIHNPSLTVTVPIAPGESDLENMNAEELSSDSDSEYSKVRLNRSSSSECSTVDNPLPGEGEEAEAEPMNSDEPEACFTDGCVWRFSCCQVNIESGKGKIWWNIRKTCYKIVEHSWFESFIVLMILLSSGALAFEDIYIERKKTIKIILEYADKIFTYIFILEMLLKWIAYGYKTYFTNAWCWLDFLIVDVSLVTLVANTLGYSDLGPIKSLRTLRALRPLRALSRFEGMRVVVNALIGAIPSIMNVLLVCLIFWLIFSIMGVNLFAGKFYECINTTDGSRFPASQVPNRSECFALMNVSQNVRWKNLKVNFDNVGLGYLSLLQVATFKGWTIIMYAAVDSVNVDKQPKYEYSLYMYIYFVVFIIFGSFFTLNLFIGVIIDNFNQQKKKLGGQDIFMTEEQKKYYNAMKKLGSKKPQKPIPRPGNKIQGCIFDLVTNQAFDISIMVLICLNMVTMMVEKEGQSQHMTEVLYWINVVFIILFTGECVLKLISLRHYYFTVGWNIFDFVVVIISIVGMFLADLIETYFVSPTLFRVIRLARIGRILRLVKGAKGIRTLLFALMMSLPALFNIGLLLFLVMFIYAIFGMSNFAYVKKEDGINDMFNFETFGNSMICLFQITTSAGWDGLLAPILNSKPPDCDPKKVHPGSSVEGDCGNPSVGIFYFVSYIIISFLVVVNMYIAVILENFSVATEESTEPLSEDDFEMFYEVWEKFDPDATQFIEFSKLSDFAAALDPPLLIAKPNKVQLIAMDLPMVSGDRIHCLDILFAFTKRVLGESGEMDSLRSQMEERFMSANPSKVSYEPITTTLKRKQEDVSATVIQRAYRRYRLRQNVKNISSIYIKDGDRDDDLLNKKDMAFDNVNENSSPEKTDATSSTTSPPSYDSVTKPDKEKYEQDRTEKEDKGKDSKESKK
Summary of the method: as §1

[3] = biological target: T1, human Nav1.5 channels stably expressed in HEK 293 cells; assay: IonWorks Quattro automated patch-clamp, sodium current, inactivated state block; conditions: selectivity over Nav1.5
Description: (§2) Compounds were tested on human Nav1.7 and Nav1.5 channels stably expressed in HEK 293 cells. […] Cells were sealed on a planar substrate using the Population Patch Plate (PPC) technology. Electrical access was obtained using both nystatin and amphotericin. A double-pulse protocol was used for the determination of IC50 values for inactivated state block. Nav1.7 and Nav1.5 expressing cells were voltage clamped at −100 mV and −110 mV, respectively. A depolarizing prepulse to −10 mV (Nav1.7) or −30 mV (Nav1.5) for 1000 ms followed by a 10 ms repolarization to −100 mV (Nav1.7) or −110 mV (Nav1.5) was given to generate fractional channel inactivation of ˜50%, followed by a 10 ms test pulse to −10 mV (Nav1.7) or −30 mV (Nav1.5) to measure peak current in control conditions and after compound addition. The following recording solutions were used (mM). External: 150 NaCl, 2 CaCl2, 5 KCl, 1 Mg Cl2, 10 HEPES, 12 Dextrose; internal: 120 CsF, 30 CsCl, 10 EGTA, 5 HEPES, 5 NaF, 2 MgCl2.
(§3) For all electrophysiology experiments, offline analysis was used to correct for current rundown and to determine percent inhibition as a function of drug concentration. IC50 values were determined by fitting to the Hill equation.

[4] = biological target: T2, human Nav1.7 channels stably expressed in HEK 293 cells; assay: as above; conditions: read-out: potency for the Nav 1.7 sodium ion channel (as measured by IonWorks)
Description: as §2, §3

T1 sequence (Q14524 whole entry): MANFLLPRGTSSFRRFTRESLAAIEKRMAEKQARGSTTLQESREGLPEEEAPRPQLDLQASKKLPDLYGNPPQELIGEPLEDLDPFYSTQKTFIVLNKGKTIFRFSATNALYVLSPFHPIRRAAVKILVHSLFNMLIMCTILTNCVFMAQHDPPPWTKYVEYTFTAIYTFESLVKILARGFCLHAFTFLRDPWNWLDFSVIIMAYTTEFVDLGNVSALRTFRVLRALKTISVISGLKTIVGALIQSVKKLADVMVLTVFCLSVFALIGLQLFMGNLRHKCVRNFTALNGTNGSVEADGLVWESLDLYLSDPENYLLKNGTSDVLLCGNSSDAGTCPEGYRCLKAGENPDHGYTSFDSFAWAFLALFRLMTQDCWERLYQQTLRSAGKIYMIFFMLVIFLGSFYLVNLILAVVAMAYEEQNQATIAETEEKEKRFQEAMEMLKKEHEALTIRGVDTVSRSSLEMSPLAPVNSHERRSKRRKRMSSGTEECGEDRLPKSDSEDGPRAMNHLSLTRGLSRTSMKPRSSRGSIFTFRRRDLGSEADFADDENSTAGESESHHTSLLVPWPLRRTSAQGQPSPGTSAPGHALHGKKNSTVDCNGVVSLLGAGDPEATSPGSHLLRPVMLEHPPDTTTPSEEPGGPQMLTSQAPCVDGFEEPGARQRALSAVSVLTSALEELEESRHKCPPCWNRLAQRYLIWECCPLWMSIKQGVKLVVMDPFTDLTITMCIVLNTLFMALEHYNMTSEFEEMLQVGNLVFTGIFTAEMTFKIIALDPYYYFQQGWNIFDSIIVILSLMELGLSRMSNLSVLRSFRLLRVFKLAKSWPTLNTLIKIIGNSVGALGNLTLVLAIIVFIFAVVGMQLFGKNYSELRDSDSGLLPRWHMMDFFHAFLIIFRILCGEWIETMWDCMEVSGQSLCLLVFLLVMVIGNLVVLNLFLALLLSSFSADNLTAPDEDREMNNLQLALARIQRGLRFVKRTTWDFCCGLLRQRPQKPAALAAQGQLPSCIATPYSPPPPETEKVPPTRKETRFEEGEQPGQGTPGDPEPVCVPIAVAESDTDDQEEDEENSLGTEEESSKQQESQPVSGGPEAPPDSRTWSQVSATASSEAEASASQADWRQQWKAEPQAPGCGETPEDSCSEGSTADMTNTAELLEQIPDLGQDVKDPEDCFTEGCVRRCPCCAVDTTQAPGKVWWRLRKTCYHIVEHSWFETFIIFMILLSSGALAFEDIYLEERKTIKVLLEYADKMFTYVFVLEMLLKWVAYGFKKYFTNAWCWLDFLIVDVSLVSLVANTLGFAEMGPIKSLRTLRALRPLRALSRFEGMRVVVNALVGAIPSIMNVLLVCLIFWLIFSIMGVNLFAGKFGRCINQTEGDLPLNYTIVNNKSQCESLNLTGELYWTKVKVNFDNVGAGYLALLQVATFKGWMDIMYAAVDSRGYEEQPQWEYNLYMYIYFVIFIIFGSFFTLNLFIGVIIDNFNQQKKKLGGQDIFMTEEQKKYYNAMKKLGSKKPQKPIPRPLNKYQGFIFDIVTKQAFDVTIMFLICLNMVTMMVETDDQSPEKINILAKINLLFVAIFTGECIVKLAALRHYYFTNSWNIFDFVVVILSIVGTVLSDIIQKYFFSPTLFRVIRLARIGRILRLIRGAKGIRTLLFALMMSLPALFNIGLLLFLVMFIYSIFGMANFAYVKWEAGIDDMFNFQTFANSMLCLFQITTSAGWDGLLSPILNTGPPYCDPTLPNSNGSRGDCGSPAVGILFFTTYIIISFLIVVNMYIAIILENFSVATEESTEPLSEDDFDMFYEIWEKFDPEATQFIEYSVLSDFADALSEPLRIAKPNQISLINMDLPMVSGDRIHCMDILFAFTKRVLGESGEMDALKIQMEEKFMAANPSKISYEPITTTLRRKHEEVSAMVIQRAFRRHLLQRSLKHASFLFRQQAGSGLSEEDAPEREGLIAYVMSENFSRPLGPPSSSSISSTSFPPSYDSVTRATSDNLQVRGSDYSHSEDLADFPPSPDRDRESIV

Compound	ratio of Nav 1.5:Nav 1.7 potency, determined by PatchXpress measurement [1]	IC50 [2] [nM]	ratio of Nav 1.5:Nav 1.7 potency, determined by IonWorks measurement [3]	IC50 [4] [nM]
O=c1oc2cc(S(=O)(=O)Nc3ncns3)ccc2n1Cc1ccccc1 [Compound 1-10, 3-benzyl-2-oxo-N-1,2,4-thiadiazol-5-yl-2,3-dihydro-1,3-benzoxazole-6-sulfonamide]	> 62	486	> 41	803
O=c1oc2cc(S(=O)(=O)Nc3ncns3)ccc2n1Cc1cccc(Cl)c1 [Compound 1-11, 3-(3-chlorobenzyl)-2-oxo-N-1,2,4-thiadiazol-5-yl-2,3-dihydro-1,3-benzoxazole-6-sulfonamide]	59	360	59	360
O=c1oc2cc(S(=O)(=O)Nc3ncns3)ccc2n1Cc1ccccc1Cl [Compound 1-12, 3-(2-chlorobenzyl)-2-oxo-N-1,2,4-thiadiazol-5-yl-2,3-dihydro-1,3-benzoxazole-6-sulfonamide]	67	408	67	408
O=c1oc2cc(S(=O)(=O)Nc3ncns3)ccc2n1Cc1ccc(Cl)cc1 [Compound 1-13, 3-(4-chlorobenzyl)-2-oxo-N-1,2,4-thiadiazol-5-yl-2,3-dihydro-1,3-benzoxazole-6-sulfonamide]	> 34	976	> 34	976
NCc1ccccc1Cn1c(=O)oc2cc(S(=O)(=O)Nc3ncns3)ccc21 [Compound 1-14, 3-[2-(aminomethyl)benzyl]-2-oxo-N-1,2,4-thiadiazol-5-yl-2,3-dihydro-1,3-benzoxazole-6-sulfonamide]	45	365	> 125	265
NC/C=C/c1ccccc1Cn1c(=O)oc2cc(S(=O)(=O)Nc3ncns3)ccc21 [Compound 3-3, 3-{2-[(1E)-3-Aminoprop-1-en-1-yl]benzyl}-2-oxo-N-(1,2,4-thiadiazol-5-yl)-2,3-dihydro-1,3-benzoxazole-6-sulfonamide]	> 89	336	65	216
O=c1oc2cc(S(=O)(=O)Nc3ncns3)ccc2n1Cc1ccccc1-c1cccc2c1CNCC2 [Compound 3-4, 2-oxo-3-[2-(1,2,3,4-tetrahydroisoquinolin-8-yl)benzyl]-N-1,2,4-thiadiazol-5-yl-2,3-dihydro-1,3-benzoxazole-6-sulfonamide]	> 272	110	> 209	158
O=c1oc2cc(S(=O)(=O)Nc3ncns3)ccc2n1Cc1ccccc1C1=CCNCCC1 [Compound 3-5, 2-oxo-3-[2-(2,5,6,7-tetrahydro-1H-azepin-4-yl)benzyl]-N-1,2,4-thiadiazol-5-yl-2,3-dihydro-1,3-benzoxazole-6-sulfonamide]	> 271	111	> 133	248
O=c1oc2cc(S(=O)(=O)Nc3ncns3)ccc2n1Cc1ccccc1C1=CC2CCC(C1)N2 (stereo not drawn) [Compound 3-7, 3-[2-(8-azabicyclo[3.2.1]oct-2-en-3-yl)benzyl]-2-oxo-N-1,2,4-thiadiazol-5-yl-2,3-dihydro-1,3-benzoxazole-6-sulfonamide]	> 219	137	> 113	292
O=c1oc2cc(S(=O)(=O)Nc3ncns3)ccc2n1Cc1ccccc1-c1cccc2c1CCNC2 [Compound 3-8, 2-oxo-3-[2-(1,2,3,4-tetrahydroisoquinolin-5-yl)benzyl]-N-1,2,4-thiadiazol-5-yl-2,3-dihydro-1,3-benzoxazole-6-sulfonamide]	> 108	278	> 103	321
NC/C=C/c1cc(Cl)ccc1Cn1c(=O)oc2cc(S(=O)(=O)Nc3ncns3)ccc21 [Compound 3-11, 3-{2-[(1E)-3-aminoprop-1-en-1-yl]-4-chlorobenzyl}-2-oxo-N-1,2,4-thiadiazol-5-yl-2,3-dihydro-1,3-benzoxazole-6-sulfonamide]	87	219	> 56	596
C[C@H](c1cccc2c1CNCC2)n1c(=O)oc2cc(S(=O)(=O)Nc3ncns3)ccc21 [Compound 4-4, 2-Oxo-3-[(1R)-1-(1,2,3,4-tetrahydroisoquinolin-8-yl)ethyl]-N-(1,2,4-thiadiazol-5-yl)-2,3-dihydro-1,3-benzoxazole-6-sulfonamide]	> 1153	26	4494	5
CC(c1ccccc1)n1c(=O)oc2cc(S(=O)(=O)Nc3ncns3)ccc21 (stereo not drawn) [Compound 4-6, 2-oxo-3-(1-phenylethyl)-N-1,2,4-thiadiazol-5-yl-2,3-dihydro-1,3-benzoxazole-6-sulfonamide]	> 88	342	> 35	954
C[C@H](c1ccccc1)n1c(=O)oc2cc(S(=O)(=O)Nc3ncns3)ccc21 [Compound 4-7, 2-oxo-3-[(1R)-1-phenylethyl]-N-1,2,4-thiadiazol-5-yl-2,3-dihydro-1,3-benzoxazole-6-sulfonamide]	287	74	28	670
CC(c1ccccc1C(F)(F)F)n1c(=O)oc2cc(S(=O)(=O)Nc3ncns3)ccc21 (stereo not drawn) [Compound 4-9, 2-oxo-N-1,2,4-thiadiazol-5-yl-3-{1-[2-(trifluoromethyl)phenyl]ethyl}-2,3-dihydro-1,3-benzoxazole-6-sulfonamide]	> 11	2640	22	1140
CC(CCc1ccccc1)n1c(=O)oc2cc(S(=O)(=O)Nc3ncns3)ccc21 (stereo not drawn) [Compound 4-11, 3-(1-methyl-3-phenylpropyl)-2-oxo-N-1,2,4-thiadiazol-5-yl-2,3-dihydro-1,3-benzoxazole-6-sulfonamide]	> 17	1770	9	1730
CC(c1cccc2c1CNCC2)n1c(=O)oc2cc(S(=O)(=O)Nc3ncns3)ccc21 (stereo not drawn) [Compound 4-14, 2-oxo-3-[1-(1,2,3,4-tetrahydroisoquinolin-8-yl)ethyl]-N-1,2,4-thiadiazol-5-yl-2,3-dihydro-1,3-benzoxazole-6-sulfonamide]	> 495	61	> 1338	25
C[C@@H](c1cccc2c1CNCC2)n1c(=O)oc2cc(S(=O)(=O)Nc3ncns3)ccc21 [Compound 4-15, 2-oxo-3-[(1S)-1-(1,2,3,4-tetrahydroisoquinolin-8-yl)ethyl]-N-1,2,4-thiadiazol-5-yl-2,3-dihydro-1,3-benzoxazole-6-sulfonamide]	> 87	343	> 451	73
CN1CCc2cccc(Cn3c(=O)oc4cc(S(=O)(=O)Nc5ncns5)ccc43)c2C1 [Compound 6-1, 3-[(2-Methyl-1,2,3,4-tetrahydroisoquinolin-8-yl)methyl]-2-oxo-N-(1,2,4-thiadiazol-5-yl)-2,3-dihydro-1,3-benzoxazole-6-sulfonamide]	> 35	869	88	366
CC(c1ccccn1)n1c(=O)oc2cc(S(=O)(=O)Nc3ncns3)c(F)cc21 (stereo not drawn) [Compound 13-6, 5-fluoro-2-oxo-3-(1-pyridin-2-ylethyl)-N-1,2,4-thiadiazol-5-yl-2,3-dihydro-1,3-benzoxazole-6-sulfonamide]			> 511	65
